Reference: US9018162B2, “Methods for rapidly treating severe hypoglycemia” (Xeris Pharmaceuticals, Inc., priority 2013, dated 2015)

Experiments:
[1] = Freezing point depression of DMSO solutions by DSC; format: physicochemical; settings: DSC scan
Description: Using PerkinElmer Instruments PYRIS Diamond Differential Scanning calorimetry (“DSC”), samples were cooled to −40° C. and heated to 40° C. at 8° C. per minute for screening purposes.

[2] = Effect of pH on insulin solubility in DMSO (visual, A630); format: physicochemical; settings: pH memory of 7, some lower-concentration solutions e.g. 10 mg/mL
Description: These solutions were lyophilized to dryness ([…]) using a conservative cycle and reconstituted to various nominal concentrations in DMSO. Solubility was measured by visual inspection for clarity and turbidity via A630.

temperature of crystallization (Tc) [1] | Compound | period to slowly dissolve to a clear solution [2]
~18 °C | C[S+](C)[O-] [neat DMSO, dimethylsulfoxide] | 
 | insulin | about 24 hours
